We go through 5 compounds from patent publication US11472778B2, “Hepatitis C virus NS3/4A protease inhibitors” (priority 2017, dated 2022).

The conditions of series [1]: rcm bond, 15-membered ring, Zhan 1b, 1,2-DCE.
The subject of series [2] is HCV replicon R155K variant in Huh7 cells. Briefly: microbe, parasite or virus in culture. In kind it is cell-based, Hepatitis C virus. The conditions noted are these: for EC50: Hepatitis C virus. In a few lines:
(§1)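 Con1 (genotype 1b) luciferase reporter replicon carrying H77 (genotype 1a) NS3, with variants made by site-directed mutagenesis, was electroporated into Huh7 cells. Cells were exposed to increasing protease inhibitor concentrations, and replication was read as luciferase activity (relative light units) 96 h after electroporation.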

For series [3], the system named is HCV replicon A156T variant in Huh7 cells. Put plainly: microbe, parasite or virus in culture. It counts as cell-based, Hepatitis C virus. The following applies: for EC50: Hepatitis C virus. Put shortly:
as §1

Series [4] concerns HCV replicon D168A variant in Huh7 cells. Put plainly: microbe, parasite or virus in culture. It counts as cell-based, Hepatitis C virus. The following applies: for EC50: Hepatitis C virus. Put shortly: as §1
Series [5] concerns the target T1, wild-type GT1a NS3/4A protease (UniProt P27958).
T1 construct: Ki WT; other: wild-type HCV NS3/4A protease
It counts as biochemical, Hepatitis C virus. Put shortly: (§2)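 NS3/4A protease (2 nM; wild-type GT1a or D168A) pre-incubated 1 h at room temperature with increasing inhibitor in 50 mM Tris pH 7.5, 5% glycerol, 10 mM DTT, 0.6 mM LDAO, 4% DMSO. Ki from three independent data sets per construct; ΔG=RTlnKi.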

In series [6] the target is GT1a D168A NS3/4A protease. It counts as biochemical, Hepatitis C virus. The conditions noted are these: fold change in Ki, D168A relative to WT. Put shortly: as §2
Series [7] concerns the target T2, GT1a D168A NS3/4A protease (UniProt P27958, D1194A, species not given).
T2 construct: rows headed: Ki (nM) D168A; Ki D168A; other: D168A variant
In kind it is biochemical, Hepatitis C virus. Put shortly:
as §2

The test system of series [8] is HCV replicon D168V variant in Huh7 cells. Briefly: microbe, parasite or virus in culture. In kind it is cell-based, Hepatitis C virus. In a few lines:
as §1

For series [9], the system named is wild-type HCV replicon in Huh7 cells. Put plainly: Cell-based drug susceptibility (replicon) assay, wild-type. The conditions noted are these: Hepatitis C virus, read-out: Replicon EC50 (nM) WT. Put shortly:
as §1
On the technique in general: Replicon systems follow genome replication, usually without infectious particles.

In series [10] the target is GT1a R155K NS3/4A protease (UniProt P27958, R1181K, species not given). It counts as biochemical, Hepatitis C virus. Put shortly:
(§3)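 2 nM NS3/4A protease (GT1a, R155K and D168A constructs) pre-incubated 1 h at room temperature with increasing inhibitor concentrations in 50 mM Tris pH 7.5, 5% glycerol, 10 mM DTT, 0.6 mM LDAO, 4% DMSO. Three independent data sets per inhibitor and construct; ΔG of binding derived from Ki as ΔG=RTlnKi.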

For series [11], the target named is GT1a R155K NS3/4A protease. In kind it is biochemical, Hepatitis C virus. The following applies: fold change in Ki, R155K relative to WT. In a few lines:
as §3

For series [12], the target named is T3, wild-type GT1a NS3/4A protease (UniProt P27958, C1185S, species not given).
T3 construct: Ki (nM) GT1a WT NS3/4A Protease
It counts as biochemical, Hepatitis C virus. The following applies: read-out: Ki (nM) GT1a WT NS3/4A Protease. In a few lines: as §2

In series [13] the target is T4, GT1a D168A NS3/4A protease (UniProt P27958, C1185S/D1194A, species not given).
T4 construct: Ki (nM) GT1a D168A NS3/4A Protease
In kind it is biochemical, Hepatitis C virus. The conditions noted are these: read-out: Ki (nM) GT1a D168A NS3/4A Protease. In a few lines:
as §2

Setting [14] is: Huh-7, read-out: Replicon EC50 (nM) R155K, Table 9.
Where [15] appears, read: Huh-7, read-out: Replicon EC50 (nM) A156T, Table 9.
Where [16] appears, read: read-out: Ki (nM) WT, Table 8, linear inhibitors.
[17] abbreviates: read-out: Ki WT, wild-type HCV NS3/4A protease.
Where [18] appears, read: read-out: Ki (nM) D168A, Table 8, linear inhibitors.
Setting [19] is: read-out: Ki D168A, D168A variant.
The mark [20] stands for this setting: Hepatitis C virus, Huh-7, read-out: Replicon EC50 (nM) D168V, Table 9.
Setting [21] is: read-out: Ki (nM) R155K, Table 8, linear inhibitors.
Where [22] appears, read: read-out: Ki R155K, R155K variant.
The mark [23] stands for this setting: Table 4, relative to WT replicon.

Read-outs that look alike come from different tables or passages of the source.

In series [1] (from C=CCCCCC[C@H](NC(=O)OC(C)(C)C)C(=O)N1C[C@H](Oc2nc3cc(OC)ccc3nc2C(F)(F)F)C[C@H]1C(=O)N[C@]1(C(=O)OCC)C[C@H]1C=C, 6.7 mM, 70.0 °C, 5.0 h), `CCOC(=O)[C@@]12C[C@H]1/C=C\CCCCC[C@H](NC(=O)OC(C)(C)C)C(=O)N1C[C@H](Oc3nc4cc(OC)ccc4nc3C(F)(F)F)C[C@H]1C(=O)N2` had a ring closure, isolated yield of 70%.
As for `C=C[C@@H]1C[C@]1(NC(=O)[C@@H]1C[C@@H](Oc2nc3cc(OC)ccc3nc2Cl)CN1C(=O)[C@@H](NC(=O)OC1CCCC1)C(C)(C)C)C(=O)NS(=O)(=O)C1CC1` [Compound 11d, Cyclopentyl ((S)-1-((2S,4R)-4-((3-chloro-7-methoxyquinoxalin-2-yl)oxy)-2-(((1R,2S)-1-((cyclopropylsulfonyl)carbamoyl)-2-vinylcyclopropyl)carbamoyl)pyrrolidin-1-yl)-3,3-dimethyl-1-oxobutan-2-yl)carbamate], the EC50 (as a rule, the midpoint of the concentration-response curve) worked out at 40 nM in series [2] (setting [14]); 292 nM in series [3] (setting [15]); 50 nM in series [4] (Huh-7, read-out: Replicon EC50 (nM) D168A, Table 9); 54 nM in series [8] (setting [20]); 7.4 nM in series [9] (Huh-7, Table 9). Further, the “Replicon EC50 (Fold change) R155K” value in series [2] (Table 9, relative to WT) is reported as “(5.4) fold”. The “Replicon EC50 (Fold change) A156T” value in series [3] (Table 9, relative to WT) is “(40) fold”. Also, the “Replicon EC50 (Fold change) D168A” value in series [4] (Table 9, relative to WT) is “(6.8) fold”. Further, the Ki in series [5] (setting [16]) stood at 3.8 nM; in series [5] (setting [17]), 3.8 ± 0.6 nM; in series [7] (setting [18]), 99 ± 10 nM; in [7] (setting [19]) it was 99 ± 10 nM; in [10] (setting [21]), 4.1 ± 0.5 nM; in series [10] (setting [22]), 4.1 ± 0.5 nM. Moreover, the “Ki D168A (fold change)” value in series [6] stood at 26. The “Replicon EC50 (Fold change) D168V” value in series [8] (Table 9, relative to WT) is “(7.3) fold”. Also, the “Ki R155K (fold change)” value in series [11] was 1.1.
Consider `C=C[C@@H]1C[C@]1(NC(=O)[C@@H]1C[C@@H](Oc2nc3cc(OC)ccc3nc2Cl)CN1C(=O)[C@@H](NC(=O)OC1CCCC1)C(C)(C)C)C(=O)NS(=O)(=O)C1(C)CC1` [Compound 12d, Cyclopentyl ((S)-1-((2S,4R)-4-((3-chloro-7-methoxyquinoxalin-2-yl)oxy)-2-(((1R,2S)-1-(((1-methylcyclopropyl)sulfonyl)carbamoyl)-2-vinylcyclopropyl)carbamoyl)pyrrolidin-1-yl)-3,3-dimethyl-1-oxobutan-2-yl)carbamate], for which the EC50 is 27 nM in series [2] (setting [14]); 163 nM in [3] (setting [15]); 12 to 38 nM in [8] (setting [20]); 23 nM in series [8] (read-out: Replicon EC50 (nM) D168V, Table 9); 3.1 nM in series [9] (Huh-7, Table 9). The “Replicon EC50 (Fold change) R155K” value in [2] (Table 9, relative to WT) is reported as “(8.7) fold”. In addition, the “Replicon EC50 (Fold change) A156T” value in [3] (Table 9, relative to WT) is “(53) fold”. Moreover, the “Replicon EC50 (Fold change) D168A” value in series [4] (Table 9, relative to WT) is given as “(8.1) fold”. Moreover, the Ki was found to be 3.9 nM in [5] (setting [16]); 3.9 ± 0.7 nM in series [5] (setting [17]); 51 ± 6 nM in series [7] (setting [18]); 51 ± 6 nM in series [7] (setting [19]); 5.2 ± 0.8 nM in [10] (setting [21]); 5.2 ± 0.8 nM in series [10] (setting [22]). Besides, the “Ki D168A (fold change)” value in series [6] stood at 13. Besides, the “Replicon EC50 (Fold change) D168V” value in series [8] (Table 9, relative to WT) is “(7.4) fold”. The “Ki R155K (fold change)” value in [11] was found to be 1.3.
Regarding `CC(C)(C)OC(=O)N[C@H]1CCCCC/C=C\[C@@H]2C[C@@]2(C(=O)NS(=O)(=O)C2CC2)NC(=O)[C@@H]2C[C@@H](Oc3nc4ccccc4nc3-c3cccs3)CN2C1=O` [Compound 18f, tert-Butyl ((2R,6S,13aS,14aR,16aS,Z)-14a-((cyclopropylsulfonyl)carbamoyl)-5,16-dioxo-2-((3-(thiophen-2-yl)quinoxalin-2-yl)oxy)-1,2,3,5,6,7,8,9,10,11,13a,14,14a,15,16,16a-hexadecahydrocyclopropa[e]pyrrolo[1,2-a][1,4]diazacyclopentadecin-6-yl)carbamate, reference compound], the ring closure, isolated yield is 61% in series [1] (from C=CCCCCC[C@H](NC(=O)OC(C)(C)C)C(=O)N1C[C@H](Oc2nc3ccccc3nc2-c2cccs2)C[C@H]1C(=O)N[C@]1(C(=O)NS(=O)(=O)C2CC2)C[C@H]1C=C, 3.5 mM, 70.0 °C) and 61% in [1] (3.5 mM). Also, the EC50 in series [2] (Huh-7, 96 h, read-out: Replicon EC50 (nM) R155K, Table 2, Huh7 cells, luciferase 96 h) came to 21.7 nM; in series [2] (Huh-7, read-out: Replicon EC50 (nM) R155K, Table 4), 21.7 nM; in [3] (Huh-7, 96 h, read-out: Replicon EC50 (nM) A156T, Table 2, Huh7 cells, luciferase 96 h), 256 nM; in series [3] (Huh-7, read-out: Replicon EC50 (nM) A156T, Table 4) it was 256 nM; in series [4] (Huh-7, 96 h, read-out: Replicon EC50 (nM) D168A, Table 2, Huh7 cells, luciferase 96 h) it was 111 nM; in series [4] (Huh-7, read-out: Replicon EC50 (nM) D168A, Table 4), 111 nM. The EC50 in series [8] (Hepatitis C virus, Huh-7, 96 h, read-out: Replicon EC50 (nM) D168V, Table 2, Huh7 cells, luciferase 96 h) is 193 nM; in [8] (Hepatitis C virus, Huh-7, read-out: Replicon EC50 (nM) D168V, Table 4) it was 193 nM; in [9] (Huh-7, 96 h, Table 2, Huh7 cells, luciferase 96 h), 0.98 nM; in series [9] (Huh-7, Table 4), 0.98 nM. In addition, the “Replicon EC50 (Fold change) R155K” value in series [2] (setting [23]) was “(22) fold”. Further, in series [3] (setting [23]), the “Replicon EC50 (Fold change) A156T” value is “(261) fold”. Further, the “Replicon EC50 (Fold change) D168A” value in series [4] (setting [23]) is reported as “(113) fold”. The Ki in series [12] (Table 1) amounted to 1.03 nM; in series [12] (Table 3) it was 1.03 nM; in series [13] (Table 1) it was 1820 nM; in series [13] (Table 3), 1820 ± 347 nM. In addition, the “Replicon EC50 (Fold change) D168V” value in [8] (setting [23]) was “(197) fold”.
As for “tert-Butyl 42R,6S,13aS,14aR,16aS,Z)-14a-((cyclopropylsulfonyl)carbamoyl)-2-((3-isopropyl-7-methoxyquinoxalin-2-yl)oxy)-5,16-dioxo-1,2,3,5,6,7,8,9,10,11,13a,14,14a,15,16,16a-hexadecahydrocyclopropa[e]pyrrolo[1,2-a][1,4]diazacyclopentadecin-6-yl)carbamate”, in series [1] (6.6 mM, 70.0 °C), the ring closure, isolated yield stood at 58%.
